# Results from ChEMBL document CHEMBL4024747, “Design, Synthesis, and Biological Activities of Vibsanin B Derivatives: A New Class of HSP90 C-Terminal Inhibitors” (J Med Chem, 2017).
# Assays:
# Format in all cases: functional, cell-based
# SMMC-7721 = assay: Antiproliferative activity against human SMMC7721 cells assessed as reduction in cell viability after 48 hrs by MTT assay; conditions: SMMC-7721, 48 h
# SW480 = assay: Antiproliferative activity against human SW480 cells assessed as reduction in cell viability after 48 hrs by MTT assay; conditions: SW480, 48 h
# MCF7 = assay: Antiproliferative activity against human MCF7 cells assessed as reduction in cell viability after 48 hrs by MTT assay; conditions: MCF7, 48 h
# A549 = assay: Antiproliferative activity against human A549 cells assessed as reduction in cell viability after 48 hrs by MTT assay; conditions: A549, 48 h
# HL-60 = assay: Antiproliferative activity against human HL60 cells assessed as reduction in cell viability after 48 hrs by MTT assay; conditions: HL-60, 48 h
SMILES,IC50 (SMMC-7721),IC50 (SW480),IC50 (MCF7),IC50 (A549),IC50 (HL-60)
CC(C)=CCC[C@]1(C)/C=C/[C@@H](OC(=O)C=C(C)C)[C@](C)(O)/C=C/[C@@H](O)/C(CO)=C\C1,16.4 µM,19.7 µM,17.4 µM,18.7 µM,15.9 µM
COCO[C@@H]1/C=C/[C@@](C)(CCC=C(C)C)C/C=C(/CO)C(=O)/C=C/[C@@]1(C)O,> 40 µM,> 40 µM,> 40 µM,> 40 µM,> 40 µM
CC(C)=CCC[C@]1(C)/C=C/[C@@H](OC(=O)C=C(C)C)[C@](C)(O)/C=C/C(=O)/C(C(=O)N2CCN(C)CC2)=C\C1,11.7 µM,4.52 µM,6.3 µM,8.44 µM,5.47 µM
CC(C)=CCC[C@]1(C)/C=C/[C@@H](OC(=O)C=C(C)C)[C@](C)(O)CCC(=O)/C(CO)=C\C1,> 40 µM,> 40 µM,> 40 µM,> 40 µM,> 40 µM
CO[C@]1(C)/C=C/C(=O)/C(CO)=C\C[C@](C)(CCC=C(C)C)/C=C/[C@H]1OC(=O)C=C(C)C,15.8 µM,15.2 µM,14.3 µM,14.3 µM,14.3 µM
CC(C)=CCC[C@]1(C)/C=C/[C@@H](OC(=O)C=C(C)C)[C@](C)(O)/C=C/C(=O)/C(C(=O)O)=C\C1,> 10 µM,> 10 µM,16.1 µM,> 10 µM,> 10 µM
CC(C)=CCC[C@]1(C)/C=C/[C@@H](OC(=O)C(C)C)[C@](C)(O)/C=C/C(=O)/C(CO)=C\C1,10.4 µM,8.51 µM,11.7 µM,10.8 µM,4 µM
COC/C1=C/C[C@](C)(CCC=C(C)C)/C=C/[C@@H](OC(=O)C=C(C)C)[C@](C)(O)/C=C/C1=O,11 µM,3.85 µM,4.13 µM,3.95 µM,3.07 µM
CC(C)=CCC[C@]1(C)/C=C/[C@@H](OC(=O)C=C(C)C)[C@](C)(O)/C=C/C(=O)/C(C(=O)N(C(C)C)C(C)C)=C\C1,17.2 µM,16 µM,17.2 µM,13.5 µM,12.7 µM
CO[C@@H]1/C=C/[C@@](C)(O)[C@H](OC(=O)C=C(C)C)/C=C/[C@@](C)(CCC=C(C)C)C/C=C\1CO,38.8 µM,12.8 µM,33.3 µM,11.2 µM,13.8 µM
CC(C)=CCC[C@]1(C)/C=C/[C@@H](OC(=O)c2ccccc2)[C@](C)(O)/C=C/C(=O)/C(CO)=C\C1,20.3 µM,10.3 µM,27 µM,15.8 µM,22.6 µM
CC(C)=CCC[C@]1(C)/C=C/[C@@H](OC(=O)C=C(C)C)[C@](C)(O)/C=C/[C@H](O)/C(CO)=C\C1,> 40 µM,> 40 µM,33 µM,> 40 µM,> 40 µM
CCN(CC)C(=O)/C1=C/C[C@](C)(CCC=C(C)C)/C=C/[C@@H](OC(=O)C=C(C)C)[C@](C)(O)/C=C/C1=O,13.8 µM,11.7 µM,12.1 µM,11.3 µM,9.08 µM

# Continued, values first:
IC50 (SMMC-7721),IC50 (SW480),IC50 (MCF7),IC50 (A549),IC50 (HL-60),SMILES
7.81 µM,2.51 µM,6.04 µM,4.1 µM,4.18 µM,CCCC(=O)O[C@@H]1/C=C/[C@@](C)(CCC=C(C)C)C/C=C(/CO)C(=O)/C=C/[C@@]1(C)O
3.67 µM,3.3 µM,3.67 µM,2.7 µM,3.34 µM,CC(C)=CCC[C@]1(C)/C=C/[C@@H](OC(=O)C=C(C)C)[C@](C)(O)/C=C/C(=O)/C(C(=O)N(C)C)=C\C1
4 µM,3.35 µM,6.04 µM,4.2 µM,2.77 µM,CC(C)=CCC[C@]1(C)/C=C/[C@@H](OC(=O)C=C(C)C)[C@](C)(O)/C=C/C(=O)/C(CO[Si](C)(C)C(C)(C)C)=C\C1
3.46 µM,2.69 µM,3.15 µM,3.1 µM,2.81 µM,CC[Si](CC)(CC)OC/C1=C/C[C@](C)(CCC=C(C)C)/C=C/[C@@H](OC(=O)C=C(C)C)[C@](C)(O)/C=C/C1=O
1.14 µM,0.77 µM,0.52 µM,0.66 µM,1.11 µM,CC(C)=CCC[C@]1(C)/C=C/[C@@H](OC(=O)C=C(C)C)[C@](C)(O)/C=C/C(=O)/C(CN2CCOCC2)=C\C1
0.34 µM,0.75 µM,0.78 µM,0.65 µM,0.74 µM,CC(C)=CCC[C@]1(C)/C=C/[C@@H](OC(=O)C=C(C)C)[C@](C)(O)/C=C/C(=O)/C(CN(C(C)C)C(C)C)=C\C1
0.57 µM,0.27 µM,0.13 µM,0.13 µM,0.14 µM,CCN(CC)C/C1=C/C[C@](C)(CCC=C(C)C)/C=C/[C@@H](OC(=O)C=C(C)C)[C@](C)(O)/C=C/C1=O
7.44 µM,9.88 µM,12.3 µM,8.73 µM,4.06 µM,CC(C)=CCC[C@](C)(/C=C/[C@@H](OC(=O)C=C(C)C)[C@](C)(O)/C=C/C(=O)/C=C/N1CCOCC1)CC=O
3.68 µM,2.8 µM,3.36 µM,1.67 µM,3.27 µM,CC(C)=CCC[C@]1(C)/C=C/[C@@H](OC(=O)C=C(C)C)[C@](C)(O)/C=C/C(=O)/C(C(=O)N2CCOCC2)=C\C1
3.25 µM,3.71 µM,3.12 µM,2.98 µM,2.84 µM,COCOC/C1=C/C[C@](C)(CCC=C(C)C)/C=C/[C@@H](OC(=O)C=C(C)C)[C@](C)(O)/C=C/C1=O
9.87 µM,4.9 µM,7.89 µM,8.67 µM,5.05 µM,CC(=O)O[C@@H]1/C=C/[C@@](C)(CCC=C(C)C)C/C=C(/CO)C(=O)/C=C/[C@@]1(C)O
3.09 µM,12.4 µM,8.84 µM,2.66 µM,1.06 µM,CC(C)=CCC[C@](C)(/C=C/[C@@H](OC(=O)C=C(C)C)[C@](C)(O)/C=C/C(=O)/C=C/N1CCN(C)CC1)CC=O
2.56 µM,0.57 µM,0.67 µM,1.31 µM,0.83 µM,CC(C)=CCC[C@]1(C)/C=C/[C@@H](OC(=O)C=C(C)C)[C@](C)(O)/C=C/C(=O)/C(COC(=O)c2ccc([N+](=O)[O-])cc2)=C\C1
4.13 µM,3.52 µM,3.99 µM,15.1 µM,3.48 µM,CC(=O)OC/C1=C/C[C@](C)(CCC=C(C)C)/C=C/[C@@H](OC(=O)C=C(C)C)[C@](C)(OC(C)=O)/C=C/C1=O
2.95 to 4.63 µM,2.95 to 4.63 µM,4.51 µM,2.95 to 4.63 µM,2.95 to 4.63 µM,CC(=O)OC/C1=C/C[C@](C)(CCC=C(C)C)/C=C/[C@@H](OC(=O)C=C(C)C)[C@](C)(O)/C=C/C1=O
9.38 µM,14.6 µM,16.5 µM,4.18 µM,4.05 µM,COC/C1=C/C[C@](C)(CCC=C(C)C)/C=C/[C@@H](OC(=O)C=C(C)C)[C@](C)(OC)/C=C/C1=O
10.2 µM,10.3 µM,12.2 µM,11.2 µM,4.69 µM,CC(C)=CCC[C@](C)(/C=C/[C@@H](OC(=O)C=C(C)C)[C@](C)(O)/C=C/C(=O)/C=C/N(C)C)CC=O
